Source: ChEMBL document CHEMBL5465560, “Selectivity Literature for EUbOPEN Chemogenomic Library” (2024)

Experiments:
[1] = target: Bone morphogenetic protein receptor type-1A (Homo sapiens, UniProt P36894); test: Selectivity interaction (KinomeScan (DiscoverX)) EUB0000229b BMPR1A; conditions: at 10 µM
[2] = target: Tyrosine-protein kinase BTK (Homo sapiens, UniProt Q06187); test: Selectivity interaction (Kinase panel (33PanQinase(R) Activity Assay)) EUB0000877a BTK
[3] = target: Phosphatidylinositol 4-kinase beta (Homo sapiens, UniProt Q9UBF8); test: Selectivity interaction (ActivX KiNativ screen (kinase selectivity in THP-1 cell lysates)) EUB0000639a PI4KB; type: subcellular; conditions: lysate, at 0.2 µM
[4] = target: T1, Serine/threonine-protein kinase Sgk3 (Homo sapiens) (UniProt Q96BR1); test: Selectivity interaction (ActivX KiNativ screen (kinase selectivity in THP-1 cell lysates)) EUB0000639a SGK3; type: subcellular; conditions: lysate
T1 sequence (whole entry): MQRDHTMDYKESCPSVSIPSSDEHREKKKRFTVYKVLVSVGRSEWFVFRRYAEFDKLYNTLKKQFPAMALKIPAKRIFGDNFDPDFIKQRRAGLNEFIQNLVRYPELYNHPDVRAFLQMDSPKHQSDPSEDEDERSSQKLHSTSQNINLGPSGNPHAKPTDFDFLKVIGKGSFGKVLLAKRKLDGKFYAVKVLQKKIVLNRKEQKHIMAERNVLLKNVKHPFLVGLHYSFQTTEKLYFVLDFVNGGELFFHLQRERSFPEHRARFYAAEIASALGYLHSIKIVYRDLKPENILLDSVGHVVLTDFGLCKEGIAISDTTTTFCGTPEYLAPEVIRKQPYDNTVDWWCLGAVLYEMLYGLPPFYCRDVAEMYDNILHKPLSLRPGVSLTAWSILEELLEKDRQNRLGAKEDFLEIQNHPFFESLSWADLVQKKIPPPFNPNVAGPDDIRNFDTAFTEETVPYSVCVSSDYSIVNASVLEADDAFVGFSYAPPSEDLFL

[5] = target: Proto-oncogene tyrosine-protein kinase ROS (Homo sapiens) (UniProt P08922); test: Selectivity interaction (KinomeScan (DiscoverX)) EUB0000595a ROS1; conditions: at 10 µM
[6] = target: T2, Tyrosine-protein kinase TXK (Homo sapiens) (UniProt P42681); test: Selectivity interaction (Ambit KINOMEscan and KiNATiv profiling in Jurkat cells) EUB0000090b TXK; type: cell-based; conditions: at 1 µM
T2 sequence (whole entry): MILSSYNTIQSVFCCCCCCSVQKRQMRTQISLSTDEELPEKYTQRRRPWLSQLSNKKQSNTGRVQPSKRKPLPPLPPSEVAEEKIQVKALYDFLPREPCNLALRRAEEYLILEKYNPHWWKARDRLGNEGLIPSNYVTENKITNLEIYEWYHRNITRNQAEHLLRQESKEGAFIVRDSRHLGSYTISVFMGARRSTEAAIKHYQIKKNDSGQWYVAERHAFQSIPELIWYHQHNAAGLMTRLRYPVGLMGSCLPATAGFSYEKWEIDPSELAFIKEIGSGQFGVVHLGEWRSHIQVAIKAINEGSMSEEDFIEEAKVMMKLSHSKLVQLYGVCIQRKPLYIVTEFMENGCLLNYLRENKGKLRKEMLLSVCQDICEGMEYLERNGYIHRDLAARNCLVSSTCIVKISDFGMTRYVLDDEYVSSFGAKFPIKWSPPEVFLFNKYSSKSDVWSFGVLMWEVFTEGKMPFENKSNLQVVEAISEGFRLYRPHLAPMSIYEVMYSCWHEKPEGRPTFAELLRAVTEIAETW

[7] = target: G protein-coupled receptor kinase 4 (Homo sapiens) (UniProt P32298); conditions: at 10 µM
[8] = target: T3, Serine/threonine-protein kinase PLK4 (Homo sapiens) (UniProt O00444); test: Selectivity interaction (KinomeScan (DiscoverX)) EUB0000655a PLK4; conditions: at 10 µM
T3 sequence (whole entry): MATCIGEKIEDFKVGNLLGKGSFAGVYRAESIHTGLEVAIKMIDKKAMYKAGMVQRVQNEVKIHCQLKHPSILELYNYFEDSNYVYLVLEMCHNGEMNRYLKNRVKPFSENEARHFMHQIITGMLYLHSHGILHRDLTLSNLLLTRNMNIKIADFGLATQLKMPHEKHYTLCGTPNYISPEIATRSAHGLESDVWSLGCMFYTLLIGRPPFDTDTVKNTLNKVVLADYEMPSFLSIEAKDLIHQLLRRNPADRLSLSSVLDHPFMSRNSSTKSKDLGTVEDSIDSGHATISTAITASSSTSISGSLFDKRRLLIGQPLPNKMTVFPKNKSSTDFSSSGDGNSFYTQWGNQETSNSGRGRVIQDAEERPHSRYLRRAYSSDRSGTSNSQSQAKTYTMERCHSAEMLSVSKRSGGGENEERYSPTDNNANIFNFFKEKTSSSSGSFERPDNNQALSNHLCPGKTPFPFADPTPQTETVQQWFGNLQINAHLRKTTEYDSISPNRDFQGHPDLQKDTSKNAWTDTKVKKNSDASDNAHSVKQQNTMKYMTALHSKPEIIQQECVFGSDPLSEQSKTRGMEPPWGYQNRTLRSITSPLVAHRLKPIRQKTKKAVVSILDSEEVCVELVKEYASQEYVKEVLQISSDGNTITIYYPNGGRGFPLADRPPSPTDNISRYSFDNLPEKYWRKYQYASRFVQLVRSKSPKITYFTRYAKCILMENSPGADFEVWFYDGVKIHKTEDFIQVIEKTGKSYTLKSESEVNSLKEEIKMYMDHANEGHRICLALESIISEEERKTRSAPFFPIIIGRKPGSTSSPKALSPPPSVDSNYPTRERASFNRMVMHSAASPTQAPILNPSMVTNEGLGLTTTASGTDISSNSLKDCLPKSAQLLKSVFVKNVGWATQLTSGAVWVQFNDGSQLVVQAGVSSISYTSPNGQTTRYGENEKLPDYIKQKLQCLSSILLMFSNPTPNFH

Chain of G protein-coupled receptor kinase 4 (Homo sapiens) (P32298 whole entry, looked up): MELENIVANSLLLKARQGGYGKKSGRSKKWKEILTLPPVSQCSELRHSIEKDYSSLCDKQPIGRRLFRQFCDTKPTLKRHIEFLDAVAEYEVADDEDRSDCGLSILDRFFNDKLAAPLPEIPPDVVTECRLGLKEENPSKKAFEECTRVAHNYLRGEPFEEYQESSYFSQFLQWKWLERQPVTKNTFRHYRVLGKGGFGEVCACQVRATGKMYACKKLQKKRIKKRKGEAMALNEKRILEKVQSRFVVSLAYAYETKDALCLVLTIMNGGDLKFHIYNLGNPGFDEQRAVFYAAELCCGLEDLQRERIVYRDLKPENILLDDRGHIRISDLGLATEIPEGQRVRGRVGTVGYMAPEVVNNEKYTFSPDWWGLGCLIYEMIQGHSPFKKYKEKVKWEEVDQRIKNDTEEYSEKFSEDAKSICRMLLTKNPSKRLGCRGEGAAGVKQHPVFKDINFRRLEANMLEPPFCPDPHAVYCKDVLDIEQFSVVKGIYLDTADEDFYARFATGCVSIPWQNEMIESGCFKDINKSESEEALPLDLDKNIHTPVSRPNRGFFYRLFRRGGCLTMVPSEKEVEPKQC
Chain of Phosphatidylinositol 4-kinase beta (Q9UBF8 2-816 limits assumed): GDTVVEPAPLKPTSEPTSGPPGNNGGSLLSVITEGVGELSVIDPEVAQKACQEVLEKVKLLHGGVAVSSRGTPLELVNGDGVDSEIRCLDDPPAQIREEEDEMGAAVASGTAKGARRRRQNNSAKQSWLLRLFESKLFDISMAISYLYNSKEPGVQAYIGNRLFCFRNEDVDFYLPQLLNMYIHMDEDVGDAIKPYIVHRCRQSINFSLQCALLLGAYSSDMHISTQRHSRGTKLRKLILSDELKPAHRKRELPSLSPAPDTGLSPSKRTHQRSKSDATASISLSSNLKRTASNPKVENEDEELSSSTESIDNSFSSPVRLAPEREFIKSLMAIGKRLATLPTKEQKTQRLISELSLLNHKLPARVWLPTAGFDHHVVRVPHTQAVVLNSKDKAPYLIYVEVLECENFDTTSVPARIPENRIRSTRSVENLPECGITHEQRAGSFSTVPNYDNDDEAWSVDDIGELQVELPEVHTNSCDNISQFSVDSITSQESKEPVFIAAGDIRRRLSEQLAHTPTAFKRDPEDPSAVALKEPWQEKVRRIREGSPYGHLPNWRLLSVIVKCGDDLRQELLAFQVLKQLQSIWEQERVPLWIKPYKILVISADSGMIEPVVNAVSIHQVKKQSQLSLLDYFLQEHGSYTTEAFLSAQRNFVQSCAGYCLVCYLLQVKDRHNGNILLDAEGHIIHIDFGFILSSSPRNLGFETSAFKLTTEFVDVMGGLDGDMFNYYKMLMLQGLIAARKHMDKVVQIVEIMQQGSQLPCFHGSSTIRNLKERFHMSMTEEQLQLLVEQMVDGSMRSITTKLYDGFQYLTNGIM
Chain of Bone morphogenetic protein receptor type-1A (P36894 whole entry): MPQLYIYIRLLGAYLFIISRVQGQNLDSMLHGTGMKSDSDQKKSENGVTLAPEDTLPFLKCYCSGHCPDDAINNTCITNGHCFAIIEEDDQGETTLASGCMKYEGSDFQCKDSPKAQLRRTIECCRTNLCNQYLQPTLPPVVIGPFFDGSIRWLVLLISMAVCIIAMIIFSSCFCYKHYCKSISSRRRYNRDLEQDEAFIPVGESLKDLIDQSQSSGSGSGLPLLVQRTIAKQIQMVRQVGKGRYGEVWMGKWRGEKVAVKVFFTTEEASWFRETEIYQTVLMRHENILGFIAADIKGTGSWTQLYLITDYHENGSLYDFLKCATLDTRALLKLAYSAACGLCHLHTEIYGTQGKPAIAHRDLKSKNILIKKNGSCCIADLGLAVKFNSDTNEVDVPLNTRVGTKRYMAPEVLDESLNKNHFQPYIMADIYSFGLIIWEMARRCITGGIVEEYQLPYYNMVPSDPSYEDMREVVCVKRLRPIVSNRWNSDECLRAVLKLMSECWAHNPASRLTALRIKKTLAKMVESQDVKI
Chain of Tyrosine-protein kinase BTK (Q06187 whole entry): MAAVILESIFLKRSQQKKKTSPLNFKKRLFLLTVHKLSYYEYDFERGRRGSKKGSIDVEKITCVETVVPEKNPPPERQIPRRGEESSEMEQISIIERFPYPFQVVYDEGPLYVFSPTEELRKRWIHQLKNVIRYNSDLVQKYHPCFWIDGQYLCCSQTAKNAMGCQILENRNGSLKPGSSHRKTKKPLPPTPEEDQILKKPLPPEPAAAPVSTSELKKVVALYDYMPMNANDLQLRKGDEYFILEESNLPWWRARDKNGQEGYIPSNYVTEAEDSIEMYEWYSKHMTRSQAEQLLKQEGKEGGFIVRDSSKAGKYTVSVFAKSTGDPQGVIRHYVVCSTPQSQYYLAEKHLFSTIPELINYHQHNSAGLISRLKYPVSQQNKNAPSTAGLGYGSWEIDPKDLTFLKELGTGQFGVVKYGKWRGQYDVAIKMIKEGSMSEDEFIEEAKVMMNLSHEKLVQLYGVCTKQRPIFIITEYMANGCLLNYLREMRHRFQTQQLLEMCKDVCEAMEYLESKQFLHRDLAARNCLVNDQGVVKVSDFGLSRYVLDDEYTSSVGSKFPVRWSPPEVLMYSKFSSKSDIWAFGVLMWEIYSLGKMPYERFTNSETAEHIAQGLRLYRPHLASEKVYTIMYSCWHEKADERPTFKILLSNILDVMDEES
Chain of Proto-oncogene tyrosine-protein kinase ROS (Homo sapiens) (P08922 whole entry): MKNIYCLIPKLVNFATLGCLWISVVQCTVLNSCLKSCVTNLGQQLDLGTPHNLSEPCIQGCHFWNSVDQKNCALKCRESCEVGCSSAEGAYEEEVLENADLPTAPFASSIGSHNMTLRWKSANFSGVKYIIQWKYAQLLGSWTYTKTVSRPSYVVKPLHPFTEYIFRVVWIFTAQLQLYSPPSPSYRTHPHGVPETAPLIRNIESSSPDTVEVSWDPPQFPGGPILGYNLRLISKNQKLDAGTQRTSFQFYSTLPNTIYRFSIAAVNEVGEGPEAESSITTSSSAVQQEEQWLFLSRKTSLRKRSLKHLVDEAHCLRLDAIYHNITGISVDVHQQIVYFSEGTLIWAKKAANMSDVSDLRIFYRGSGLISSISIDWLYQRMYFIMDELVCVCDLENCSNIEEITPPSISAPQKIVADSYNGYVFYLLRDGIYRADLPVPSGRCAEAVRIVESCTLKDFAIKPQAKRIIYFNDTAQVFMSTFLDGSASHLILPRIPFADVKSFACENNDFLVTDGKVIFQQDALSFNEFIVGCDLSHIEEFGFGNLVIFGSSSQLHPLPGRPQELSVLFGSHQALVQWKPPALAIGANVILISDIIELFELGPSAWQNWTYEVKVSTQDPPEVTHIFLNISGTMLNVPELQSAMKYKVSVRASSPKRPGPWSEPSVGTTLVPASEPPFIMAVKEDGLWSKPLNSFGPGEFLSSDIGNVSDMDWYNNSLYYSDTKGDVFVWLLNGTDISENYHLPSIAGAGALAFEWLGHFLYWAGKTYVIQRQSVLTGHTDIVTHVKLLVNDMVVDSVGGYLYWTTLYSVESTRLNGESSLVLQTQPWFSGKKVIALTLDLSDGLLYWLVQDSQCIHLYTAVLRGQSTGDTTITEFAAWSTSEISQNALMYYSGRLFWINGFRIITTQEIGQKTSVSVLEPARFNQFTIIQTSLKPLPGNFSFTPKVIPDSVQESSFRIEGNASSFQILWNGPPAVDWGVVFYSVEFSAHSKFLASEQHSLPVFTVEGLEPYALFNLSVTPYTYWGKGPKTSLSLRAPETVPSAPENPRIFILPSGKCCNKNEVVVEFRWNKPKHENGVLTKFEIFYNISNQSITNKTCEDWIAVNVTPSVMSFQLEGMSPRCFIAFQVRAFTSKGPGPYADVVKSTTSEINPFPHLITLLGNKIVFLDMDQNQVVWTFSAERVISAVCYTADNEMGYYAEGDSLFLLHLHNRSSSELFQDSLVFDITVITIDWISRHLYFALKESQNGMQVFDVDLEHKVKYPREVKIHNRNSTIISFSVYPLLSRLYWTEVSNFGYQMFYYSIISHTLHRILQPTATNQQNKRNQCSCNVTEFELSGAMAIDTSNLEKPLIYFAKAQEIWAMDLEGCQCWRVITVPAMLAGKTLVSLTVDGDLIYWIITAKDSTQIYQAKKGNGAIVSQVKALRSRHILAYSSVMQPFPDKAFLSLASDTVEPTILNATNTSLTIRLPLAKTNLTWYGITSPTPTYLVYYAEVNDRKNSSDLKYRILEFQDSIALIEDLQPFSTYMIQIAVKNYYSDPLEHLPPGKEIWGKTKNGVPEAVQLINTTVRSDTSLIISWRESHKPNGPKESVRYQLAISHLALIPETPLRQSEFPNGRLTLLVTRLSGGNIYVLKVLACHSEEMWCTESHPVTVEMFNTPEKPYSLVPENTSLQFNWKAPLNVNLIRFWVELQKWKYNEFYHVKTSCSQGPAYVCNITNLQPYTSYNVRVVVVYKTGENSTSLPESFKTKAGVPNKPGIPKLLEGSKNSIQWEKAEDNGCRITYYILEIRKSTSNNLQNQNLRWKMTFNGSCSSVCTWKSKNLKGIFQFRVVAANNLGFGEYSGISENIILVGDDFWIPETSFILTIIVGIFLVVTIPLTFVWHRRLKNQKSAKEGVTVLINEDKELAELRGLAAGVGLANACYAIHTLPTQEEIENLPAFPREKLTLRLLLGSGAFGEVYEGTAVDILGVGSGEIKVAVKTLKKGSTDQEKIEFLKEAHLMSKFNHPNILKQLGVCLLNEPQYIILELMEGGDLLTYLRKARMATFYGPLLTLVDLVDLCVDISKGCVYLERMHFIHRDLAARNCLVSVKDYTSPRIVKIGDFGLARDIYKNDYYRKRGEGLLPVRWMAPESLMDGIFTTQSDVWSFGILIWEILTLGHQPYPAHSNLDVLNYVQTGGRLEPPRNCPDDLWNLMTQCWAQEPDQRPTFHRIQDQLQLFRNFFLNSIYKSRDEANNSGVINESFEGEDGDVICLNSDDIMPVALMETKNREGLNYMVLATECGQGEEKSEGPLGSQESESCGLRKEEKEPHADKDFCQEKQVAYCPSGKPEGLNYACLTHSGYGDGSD

COc1cc(N(C)c2ccnc3ccc(C(F)(F)F)cc23)cc(OC)c1OC
% binding [1]: 76%

CCC(=O)N1CC[C@H](Nc2ncnc3c2CN(c2cnc(OC)c(C(F)(F)F)c2)CC3)C1 [LENIOLISIB]
IC50 [2]: > 10 µM

CC[C@@H]1[C@H](F)C(=O)N[C@@H]1COc1nccc2cc(C(N)=O)c(OC)cc12 [ZIMLOVISERTIB]
% of inhibition [3]: -16.4%
% of inhibition ([4]; at 0.01 µM): 51.3%
% of inhibition ([4]; at 0.04 µM): 6.7%
% of inhibition ([4]; at 0.2 µM): 7.4%
% of inhibition ([4]; at 1 µM): 18.9%
% of inhibition ([4]; at 5 µM): 25.3%

COCC(=O)NC/C=C/c1ccc2ncnc(Nc3ccc(Oc4ccc(C)nc4)c(C)c3)c2c1 [CP-724714]
% of control [5]: 100%

CN(C)C/C=C/C(=O)Nc1ccc(C(=O)N2CCCC(Nc3ncc(Cl)c(-c4c[nH]c5ccccc45)n3)C2)cc1 (configuration not stated)
% of control [6]: 94%

Cc1cc([C@@H](C)Nc2ccccc2C(=O)O)c2nc(N3CCOCC3)cc(=O)n2c1 [AZD-6482]
% of control [7]: 90%

CN(C)CCOc1ccc(-c2nc(-c3ccncc3)c(-c3ccc4c(c3)CC/C4=N\O)[nH]2)cc1
% of control [8]: 83%
